# According to article PMC3130785, “Small Compound 6-O-Angeloylplenolin Induces Mitotic Arrest and Exhibits Therapeutic Potentials in Multiple Myeloma” (PLoS ONE, 2011):
# Where two headings read alike, the source gives them in different places.
# Legend:
# [1] = system: U266, RPMI 8226, MM.1S, and MM.1R cells; test: Trypan blue exclusion assay; format: cell-based, human; conditions: 6-OAP 5 to 7.5 µM
# Experimental: (§1) U266, RPMI 8226 cells (1×10^4), primary CD138+ cells, PBMCs (5×10^4), and BMSCs (1×10^4) were cultured in 96-well dishes and incubated without or with 6-OAP at indicated concentration for 48 h. MM.1S and MM.1R cells (2×10^4) were seeded into 96-well dishes and pre-cultured for 24 h, then treated with 6-OAP for 48 h. Cell proliferation was determined by MTT assay. Cell viability was estimated by trypan blue dye exclusion.
# [2] = system: normal PBMCs from 5 healthy volunteers; test: MTT assay on normal PBMCs; format: cell-based, human; conditions: 48 h
# Excerpt: CD138+ cells from 7 MM patients were isolated with informed consent from BM mononuclear cells by using positive immunomagnetic column separation (Miltenyi Biotech, Auburn, CA). The purity of CD138+ cells is above 97% as determined by flow cytometry. BMSCs were generated from a MM patient-derived CD138-negative BM mononuclear cells cultured for 5 weeks. Peripheral blood mononuclear cells (PBMCs) from 5 healthy donors were separated by Ficoll-Hipaque density sedimentation.
# as §1
# [3] = system: MM.1S cells; test: MTT assay, 6-OAP combined with Dox, Dex or BOR; format: cell-based, human; conditions: 48 h, 6-OAP 5 µM, in particular Dox and BOR
# Experimental: as §1
# (§2) Figure 4 6-OAP enhances cytotoxicity of Dox, Dex and BOR to MM cells. (A through C) MM.1S cells were treated for 48 h with Dox (A), Dex (B) or BOR (C) in the presence or absence of 6-OAP at 5 µM. MTT assay was used to test the proliferation of MM.1S cells. (D) MM.1R cells were treated for 48 h with Dex in the presence or absence of 6-OAP at 7.5 µM. MTT assay was used to test the proliferation of MM.1R cells. *p<.001,** p<.05. (E) MM.1S cells were cultured with control media (con), 6-OAP (O, 5 µM), BOR (B, 3 nM), or 6-OAP (5 µM) plus BOR (3 nM) (OB) for indicated time points. Cells were then lysed and subjected to Western blotting using indicated antibodies. CF, cleavage fragment.
# [4] = system: MM.1R cells; test: MTT assay, Dex with or without 6-OAP; format: cell-based, human; conditions: 48 h, 6-OAP 7.5 µM
# Experimental: as §1, §2
# [5] = system: U266 cells; test: U266 xenograft murine model; format: in vivo, BALB/c nude mice
# Experimental: All mice used in this study were bred and maintained in a specific pathogen-free environment. BALB/c nude mice (6 to 7 weeks old) were obtained from the Shanghai Laboratory Animal Center (Shanghai, China), and maintained and monitored in a specific pathogen-free environment. All animal studies were conducted according to protocols approved by the Animal Ethics Committee of our institute. The mice were injected subcutaneously with 1×10^7 U266 cells in 100 µL RPMI-1640 media into the right flank. Treatments were started when the tumors reached a palpable size. The control group received vehicle (0.8% DMSO/18% Cremophor/8% Ethanol in normal saline), while the other two groups received intraperitoneally injection of 6-OAP (50 or 75 mg/kg per day, five times a week for 4 weeks). Caliper measurements of the longest perpendicular tumor diameters were performed twice a week to estimate the tumor volume, using the following formula: 4π/3× (width/2)^2× (length/2), representing the 3-dimensional volume of an ellipse. Animals were sacrificed when tumors reached 2 cm or if the mice appeared moribund to prevent unnecessary morbidity to the mice. At the time of the animals' death, tumors were excised; cells were separated and subjected to immunofluorescence analysis or lyzed for Western blotting.
# Figure 6 In vivo therapeutic efficacy of 6-OAP on human MM murine model. Nude mice were given subcutaneous inoculations in the right flank with 1×10^7 U266 cells. When the tumors reached a palpable size, the mice were treated intraperitoneally with vehicle or 6-OAP (50 or 75 mg/kg, 5 times a week for 4 weeks). […] (C) Survival curve of control and 6-OAP-treated mice. […] (E) Tumor samples were harvested from mice treated with vehicle or 50 mg/kg 6-OAP and subjected to immunofluorescence analysis using an anti-α-tubulin antibody and DAPI. (F) Tumor tissues were harvested from mice treated with vehicle or 50 mg/kg 6-OAP, whole-tissue lysates were subjected to Western blotting using an anti-cyclin B1 antibody. (G) The concentration-time profiles of 6-OAP after intravenous (30 mg/kg) or intraperitoneal (40 mg/kg) injection of 6-OAP in Sprague-Dawley rats.
# [6] = Pharmacokinetic study (LC-MS/MS plasma concentration); format: in vivo, Sprague-Dawley rats; conditions: rat; for MRT last: read-out: MRT0-t
# Experimental: Eight Sprague–Dawley rats (220–250 g, female) were bought from the Laboratory Animal Center of Nanfang Medical University (Guangzhou, China), and maintained and monitored in a specific pathogen-free environment. They were fasted overnight before the experiments. All rat studies were conducted according to protocols approved by the Animal Ethics Committee of our institute. Four rats were administered with 6-OAP (30 mg/kg) by intravenous injection, and the other four rats were inoculated with 6-OAP (40 mg/kg) by intraperitoneal injection. Blood samples of 100–200 µL were collected from the orbit at the time points indicated. The plasma concentrations of 6-OAP were determined by LC-MS/MS. The pharmacokinetic parameters were obtained from the pharmacokinetic software DAS 2.0 (Drug and Statistics Version 2.0).
# [7] = female, Sprague-Dawley, in vivo, ip (40 mg/kg)
# [8] = female, Sprague-Dawley, in vivo, iv (30 mg/kg)
smiles,measurement,setting,value
"CC=C(C)C(=O)OC1C2C(CC(C)C3C=CC(=O)C31C)OC(=O)C2C (centres unmarked) [6-OAP, 6-O-angeloylplenolin]",cell growth (trypan blue exclusion),[1],markedly inhibited cell growth
same,growth of normal PBMCs,[2],did not drastically affect the growth
same,"effect on cytotoxicity of Dox, Dex, BOR",[3],significantly enhanced cytotoxicity
same,effect on inhibitory effect of Dex,[4],drastically potentiated inhibitory effect
same,cyclin B1 in tumor tissues,"[5]; 50 mg/kg, Western blotting, vs control mice",accumulated
same,spindle formation in tumor samples,"[5]; 50 mg/kg, immunofluorescence, anti-α-tubulin",apparent spindle formation was detected
same,tumor growth,"[5]; 50 and 75 mg/kg ip, five times a week for four weeks, vs vehicle, P<.0001",significantly inhibited tumor growth
same,body weight of mice,"[5]; 50 or 75 mg/kg ip, 4 weeks",did not reduce body weight
same,survival,"[5]; 50 or 75 mg/kg ip, vs vehicle control",prolonged
same,AUC(0-t),[6]; [7],18 ± 2.7 µg·h/mL
same,Cmax,[6]; [7],3.87 ± 1.12 µg/mL
same,half-life,[6]; [7],4.68 ± 0.463 h
same,bioavailability,"[6]; female, Sprague-Dawley, in vivo, ip (40 mg/kg), read-out: BA (bioavailability)",92.5%
same,MRT last,[6]; [7],5.75 ± 1.03 h
same,AUC(0-t),[6]; [8],14.7 ± 1.02 µg·h/mL
same,Cmax,[6]; [8],16.4 ± 1.94 µg/mL
same,half-life,[6]; [8],1.76 ± 0.453 h
same,clearance,"[6]; female, Sprague-Dawley, in vivo, iv (30 mg/kg), read-out: CLz (converted)",2.04 L/h/kg
same,MRT last,[6]; [8],1.44 ± 0.448 h
same,Tmax,"[6]; female, Sprague-Dawley, in vivo, ip, 40 mg/kg, ip 40 mg/kg, read-out: time of peak concentration (converted)",0.813 h
same,Tmax,"[6]; female, Sprague-Dawley, in vivo, ip, 40 mg/kg, ip (40 mg/kg), read-out: Tmax",0.813 ± 0.08 h
same,Tmax,"[6]; female, Sprague-Dawley, in vivo, iv, 30 mg/kg, iv 30 mg/kg, read-out: time of peak concentration (converted)",0.033 h
same,Tmax,"[6]; female, Sprague-Dawley, in vivo, iv, 30 mg/kg, iv (30 mg/kg), read-out: Tmax",0.033 h
same,CLz,[6]; ip 40 mg/kg,2.240 ± 0.335 L/h/kg
same,peak plasma concentration,[6]; ip 40 mg/kg,11.191 ± 3.225 µM
same,peak plasma concentration,[6]; iv 30 mg/kg,47.506 ± 5.595 µM
